In ChEMBL document CHEMBL1147537, “N-Benzoyl amino acids as ICAM/LFA-1 inhibitors. Part 2: structure-activity relationship of the benzoyl moiety” (Bioorg Med Chem Lett, 2004) one finds IC50 data, which are given here for 63 molecules.

Non-standard residues stand in square brackets, D forms with d. Residues, ends and D or L forms follow the SMILES beside them. ξ: configuration not given here. ξPip = O=C(O)C1CCCCN1

As a reminder, the IC50 is the midpoint of a concentration-inhibition curve. High values mean lower potency, low ones higher potency.

In this experiment the target is Intercellular adhesion molecule (ICAM-1), Integrin alpha-L/beta-2 (Homo sapiens, UniProt P05107+P05362+P20701). Nature of the experiment: Inhibitory activity against association of LFA-1 with intercellular adhesion molecule 1. The experiment is classed as protein-complex assay.
Intercellular adhesion molecule (ICAM-1), Integrin alpha-L/beta-2, sequence (P20701 whole entry): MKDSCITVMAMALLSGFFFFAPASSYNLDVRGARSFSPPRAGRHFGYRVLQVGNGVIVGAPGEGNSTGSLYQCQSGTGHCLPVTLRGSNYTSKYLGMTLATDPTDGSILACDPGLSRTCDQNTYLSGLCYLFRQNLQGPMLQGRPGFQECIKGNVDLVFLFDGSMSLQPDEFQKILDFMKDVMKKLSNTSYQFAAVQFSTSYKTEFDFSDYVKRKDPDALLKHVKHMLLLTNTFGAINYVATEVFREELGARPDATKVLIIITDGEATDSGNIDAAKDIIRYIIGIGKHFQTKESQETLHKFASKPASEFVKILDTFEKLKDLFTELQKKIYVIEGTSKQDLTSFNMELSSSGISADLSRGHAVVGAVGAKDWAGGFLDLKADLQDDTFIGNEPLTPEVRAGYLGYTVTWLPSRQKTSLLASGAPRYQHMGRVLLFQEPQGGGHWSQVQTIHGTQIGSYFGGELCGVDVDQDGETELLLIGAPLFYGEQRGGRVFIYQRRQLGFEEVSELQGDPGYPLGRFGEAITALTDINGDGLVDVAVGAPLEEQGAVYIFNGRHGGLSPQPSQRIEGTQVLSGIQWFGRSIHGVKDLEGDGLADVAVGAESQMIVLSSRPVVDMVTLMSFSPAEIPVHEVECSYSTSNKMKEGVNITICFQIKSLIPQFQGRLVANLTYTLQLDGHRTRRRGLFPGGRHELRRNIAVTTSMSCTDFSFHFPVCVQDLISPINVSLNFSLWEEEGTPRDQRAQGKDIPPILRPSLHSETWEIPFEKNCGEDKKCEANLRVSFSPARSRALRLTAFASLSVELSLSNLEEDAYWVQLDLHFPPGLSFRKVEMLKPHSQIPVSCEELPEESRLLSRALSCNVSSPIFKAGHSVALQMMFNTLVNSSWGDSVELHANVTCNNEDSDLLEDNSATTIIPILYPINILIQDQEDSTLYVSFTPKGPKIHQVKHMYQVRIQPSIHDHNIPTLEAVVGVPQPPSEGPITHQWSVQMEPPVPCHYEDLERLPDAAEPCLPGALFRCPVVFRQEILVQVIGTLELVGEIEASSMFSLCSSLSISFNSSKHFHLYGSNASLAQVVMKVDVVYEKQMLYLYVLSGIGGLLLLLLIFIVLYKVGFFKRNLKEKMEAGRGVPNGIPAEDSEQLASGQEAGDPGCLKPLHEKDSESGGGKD
Intercellular adhesion molecule (ICAM-1), Integrin alpha-L/beta-2, sequence (P05362 whole entry): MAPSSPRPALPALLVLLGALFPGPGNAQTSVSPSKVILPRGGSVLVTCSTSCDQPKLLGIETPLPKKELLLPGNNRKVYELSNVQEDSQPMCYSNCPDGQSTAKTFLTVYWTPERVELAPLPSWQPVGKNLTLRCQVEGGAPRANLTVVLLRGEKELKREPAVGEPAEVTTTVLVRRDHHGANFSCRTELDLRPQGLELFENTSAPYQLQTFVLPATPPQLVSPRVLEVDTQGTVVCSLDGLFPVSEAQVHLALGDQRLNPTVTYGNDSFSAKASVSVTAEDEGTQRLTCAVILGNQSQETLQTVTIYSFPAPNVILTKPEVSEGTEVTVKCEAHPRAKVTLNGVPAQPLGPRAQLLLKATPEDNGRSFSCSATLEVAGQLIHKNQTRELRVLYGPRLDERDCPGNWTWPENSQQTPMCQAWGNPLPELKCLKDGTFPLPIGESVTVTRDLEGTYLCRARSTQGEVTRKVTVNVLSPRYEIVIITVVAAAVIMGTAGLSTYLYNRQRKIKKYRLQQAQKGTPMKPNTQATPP
Intercellular adhesion molecule (ICAM-1), Integrin alpha-L/beta-2, sequence (P05107 whole entry): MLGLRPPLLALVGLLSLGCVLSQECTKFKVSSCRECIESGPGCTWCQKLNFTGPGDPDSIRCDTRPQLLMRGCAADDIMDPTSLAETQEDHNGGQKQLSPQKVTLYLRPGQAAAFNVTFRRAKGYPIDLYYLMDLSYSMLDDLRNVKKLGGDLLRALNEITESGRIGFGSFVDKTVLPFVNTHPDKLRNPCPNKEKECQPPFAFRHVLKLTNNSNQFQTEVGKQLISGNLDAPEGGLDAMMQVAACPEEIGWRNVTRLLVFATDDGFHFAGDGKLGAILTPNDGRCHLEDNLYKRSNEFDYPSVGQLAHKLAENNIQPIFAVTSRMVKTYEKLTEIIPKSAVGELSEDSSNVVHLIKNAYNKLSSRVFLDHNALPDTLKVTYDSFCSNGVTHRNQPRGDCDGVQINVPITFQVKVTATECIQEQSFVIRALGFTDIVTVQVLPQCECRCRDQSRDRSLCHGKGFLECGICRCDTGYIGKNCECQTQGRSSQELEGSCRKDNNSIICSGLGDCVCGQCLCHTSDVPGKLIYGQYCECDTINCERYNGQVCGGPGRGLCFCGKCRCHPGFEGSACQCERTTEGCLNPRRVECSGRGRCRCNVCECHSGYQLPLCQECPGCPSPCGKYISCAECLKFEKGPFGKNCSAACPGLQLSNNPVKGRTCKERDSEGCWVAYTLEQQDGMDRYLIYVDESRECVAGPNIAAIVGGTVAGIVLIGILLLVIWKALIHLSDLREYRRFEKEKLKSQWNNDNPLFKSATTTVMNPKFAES
Molecule `O=C(N[C@@H](Cc1c[nH]c2ccccc12)C(=O)O)c1ccccc1` showed an IC50 of 127 µM.

As for `O=C(N[C@@H](Cc1c[nH]c2ccccc12)C(=O)O)C1CCNCC1`, the IC50 was above 1000 µM.

Take `O=C(N[C@@H](Cc1c[nH]c2ccccc12)C(=O)O)c1ccccc1O`: the 50% inhibitory concentration (IC50) is above 500 µM.

`O=C(N[C@@H](Cc1c[nH]cn1)C(=O)O)c1c(F)cccc1Cl`: the IC50 turned out to be 0.13 µM.

In turn, `O=C(N[C@@H](Cc1c[nH]c2ccccc12)C(=O)O)c1c(F)cccc1Br` showed an IC50 of 0.43 µM.

For the molecule `O=C(N[C@@H](Cc1c[nH]c2ccccc12)C(=O)O)C1CCCNC1` (stereo partly drawn), the IC50 is above 1000 µM.

Consider `O=C(N[C@@H](Cc1c[nH]c2ccccc12)C(=O)O)c1ccccc1F`, for which the IC50 worked out at 7.4 µM.

`O=C(O)[C@H](Cc1c[nH]c2ccccc12)NC(=O)N1CCCCC1`: it took 380 µM to reach half-maximal inhibition (IC50).

On to `O=C(N[C@@H](Cc1c[nH]c2ccccc12)C(=O)O)c1cccc(Cl)c1Cl`, for which the IC50 was determined as 6.3 µM.

Take `NC(=O)C[C@H](NC(=O)c1c(Cl)cccc1Cl)C(=O)O`: the IC50 amounted to 0.17 µM.

In the case of `Nc1ccc(C(=O)N[C@@H](Cc2c[nH]c3ccccc23)C(=O)O)c(Cl)c1`, half-maximal inhibition (IC50) required 2 µM.

Regarding `O=C(N[C@@H](Cc1c[nH]c2ccccc12)C(=O)O)c1c(F)cccc1F`, the IC50 came out at 0.46 µM.

With `O=C(N[C@@H](Cc1c[nH]c2ccccc12)C(=O)O)c1cc(Br)ccc1O`, the IC50 is above 500 µM.

With `O=C(N[C@@H](Cc1c[nH]c2ccccc12)C(=O)O)c1ccccc1I`, the IC50 worked out at 8.9 µM.

Take `Cc1ccc(C(=O)N[C@@H](Cc2c[nH]c3ccccc23)C(=O)O)cc1`: half-maximal inhibition (IC50) was put at 129 µM.

Consider `O=C(N[C@@H](Cc1c[nH]c2ccccc12)C(=O)O)c1cccnc1`, for which the IC50 came to 112 µM.

Regarding `O=C(N[C@@H](Cc1c[nH]c2ccccc12)C(=O)O)c1cncc(Br)c1`, the IC50 is above 200 µM.

As to `O=C(N[C@@H](Cc1c[nH]c2ccccc12)C(=O)O)C1CCCCC1`, it took 61 µM to reach half-maximal inhibition (IC50).

`O=C(N[C@@H](Cc1c[nH]c2ccccc12)C(=O)O)c1c(F)cccc1Cl` gave an IC50 of 0.25 µM.

As for `O=C(N[C@@H](Cc1c[nH]c2ccccc12)C(=O)O)c1ccc(-c2ccccc2)cc1`, the IC50 is above 100 µM.

With `O=C(N[C@@H](Cc1c[nH]c2ccccc12)C(=O)O)c1ccc(Cl)cc1Cl`, the IC50 was 8.4 µM.

In the case of `O=C(N[C@@H](Cc1c[nH]c2ccccc12)C(=O)O)c1ccccc1-c1ccccc1`, the IC50 was above 100 µM.

`Cc1cccc(C(=O)N[C@@H](Cc2c[nH]c3ccccc23)C(=O)O)c1` gave an IC50 of 295 µM.

`O=C(N[C@@H](Cc1c[nH]c2ccccc12)C(=O)O)c1ccc(F)cc1` registered an IC50 of 136 µM.

`O=C(N[C@@H](Cc1c[nH]c2ccccc12)C(=O)O)c1ccc([N+](=O)[O-])cc1Cl` had an IC50 of 5.2 µM.

For the molecule `Cc1cccc(C)c1C(=O)N[C@@H](Cc1c[nH]c2ccccc12)C(=O)O`, the half-maximal inhibitory concentration (IC50) came out at 1.1 µM.

In turn, `O=C(N[C@@H](Cc1c[nH]c2ccccc12)C(=O)O)c1cc(Br)ccc1Br` returned an IC50 of 24.3 µM.

On to `COc1ccc(C(=O)N[C@@H](Cc2c[nH]c3ccccc23)C(=O)O)cc1`, for which the midpoint of inhibition, the IC50, lay at 178 µM.

`NC(=O)C[C@H](NC(=O)c1c(F)cccc1Cl)C(=O)O` displayed an IC50 of 0.11 µM.

For the molecule `O=C(N[C@@H](Cc1c[nH]c2ccccc12)C(=O)O)c1cnccc1Cl`, the IC50 amounted to 32.6 µM.

Molecule `O=C(N[C@@H](Cc1c[nH]c2ccccc12)C(=O)O)c1cccc(F)c1` displayed an IC50 of 148 µM.

In turn, `O=C(N[C@@H](Cc1c[nH]cn1)C(=O)O)c1c(F)cccc1F` yielded an IC50 of 0.2 µM.

In turn, `NC(=O)C[C@H](NC(=O)c1c(F)cccc1F)C(=O)O` yielded an IC50 of 0.23 µM.

In the case of `O=C(N[C@@H](Cc1c[nH]c2ccccc12)C(=O)O)c1ccc(Br)cc1`, the IC50 turned out to be 61 µM.

Regarding `O=C(N[C@@H](Cc1c[nH]c2ccccc12)C(=O)O)c1cccc(Br)c1`, the IC50 was above 100 µM.

The molecule `COc1cccc(C(=O)N[C@@H](Cc2c[nH]c3ccccc23)C(=O)O)c1` registered a 50% inhibitory concentration (IC50) of 438 µM.

In the case of `O=C(N[C@@H](Cc1c[nH]c2ccccc12)C(=O)O)c1cccc(Cl)c1`, the IC50 was found to be 295 µM.

For the molecule `COc1ccccc1C(=O)N[C@@H](Cc1c[nH]c2ccccc12)C(=O)O`, the IC50 amounted to 225 µM.

Take `O=C(N[C@@H](Cc1c[nH]c2ccccc12)C(=O)O)c1cc(Br)ccc1Cl`: the IC50 was 17.9 µM.

Consider `COc1ccc(Br)c(C(=O)N[C@@H](Cc2c[nH]c3ccccc23)C(=O)O)c1`, for which the IC50 was 9 µM.

`O=C(N[C@@H](Cc1c[nH]c2ccccc12)C(=O)O)c1cccc(O)c1` yielded an IC50 above 100 µM.

As for `O=C(N[C@@H](Cc1c[nH]c2ccccc12)C(=O)O)c1cccc(I)c1`, the IC50 was above 100 µM.

Turning to `Cc1cccc(Cl)c1C(=O)N[C@@H](Cc1c[nH]c2ccccc12)C(=O)O`, the midpoint of inhibition, the IC50, lay at 0.64 µM.

`O=C(N[C@@H](Cc1c[nH]c2ccccc12)C(=O)O)c1ccc[n+]([O-])c1` yielded an IC50 above 1000 µM.

Molecule `CC1CCCCC1C(=O)N[C@@H](Cc1c[nH]c2ccccc12)C(=O)O` (stereo partly drawn) registered an IC50 of 28 µM.

On to `Cc1cccc(C)c1C(=O)N[C@@H](Cc1cnc[nH]1)C(=O)O`, for which 1.77 µM corresponded to half-maximal inhibition (IC50).

For `O=C(N[C@@H](Cc1c[nH]c2ccccc12)C(=O)O)c1ccccn1`, the IC50 is above 100 µM.

With `Cc1ccccc1C(=O)N[C@@H](Cc1c[nH]c2ccccc12)C(=O)O`, the IC50 was determined as 4 µM.

Molecule `O=C(N[C@@H](Cc1c[nH]c2ccccc12)C(=O)O)c1cc(Cl)cc(Cl)c1` displayed a concentration for half-maximal inhibition (IC50) of 200 µM.

In turn, `O=C(N[C@@H](Cc1c[nH]c2ccccc12)C(=O)O)c1cc(F)cc(F)c1` had an IC50 of 89.7 µM.

For `O=C(N[C@@H](Cc1c[nH]c2ccccc12)C(=O)O)c1ccncc1`, the IC50 stood at 92 µM.

`O=C(N[C@@H](Cc1c[nH]c2ccccc12)C(=O)O)c1cc(F)ccc1F` yielded an IC50 of 11.5 µM.

In turn, `O=C(N[C@@H](Cc1c[nH]c2ccccc12)C(=O)O)c1ccc(O)cc1` showed an IC50 above 100 µM.

In turn, `O=C(N[C@@H](Cc1c[nH]c2ccccc12)C(=O)O)c1ccc(Cl)c(Cl)c1` registered a concentration for half-maximal inhibition (IC50) of 170 µM.

`O=C(N[C@@H](Cc1cnc[nH]1)C(=O)O)c1c(Cl)cccc1Cl` registered an IC50 of 0.16 µM.

The molecule `O=C(N[C@@H](Cc1c[nH]c2ccccc12)C(=O)O)c1ccc(I)cc1` gave an IC50 of 92 µM.

`O=C(N[C@@H](Cc1c[nH]c2ccccc12)C(=O)O)c1c(Cl)cccc1Cl` showed an IC50 of 0.6 µM.

`O=C(N[C@@H](Cc1c[nH]c2ccccc12)C(=O)O)c1cccc(F)c1F` came in with a half-maximal inhibitory concentration (IC50) of 21.6 µM.

For the molecule `O=C(N[C@@H](Cc1c[nH]c2ccccc12)C(=O)O)c1ccccc1Cl`, the 50% inhibitory concentration (IC50) stood at 1.5 µM.

`O=C(N[C@@H](Cc1c[nH]c2ccccc12)C(=O)O)c1cc(Cl)ccc1Cl` gave an IC50 of 6.6 µM.

Regarding `O=C(N[C@@H](Cc1c[nH]c2ccccc12)C(=O)O)c1cccnc1Cl`, half-maximal inhibition (IC50) required 1.2 µM.

Consider `O=C(N[C@@H](Cc1c[nH]c2ccccc12)C(=O)O)C1CCCCN1` (stereo partly drawn) (H-[ξPip]-Trp-OH), for which the IC50 is above 1000 µM.

In turn, `O=C(N[C@@H](Cc1c[nH]c2ccccc12)C(=O)O)c1ccc(Cl)cc1` [BENZOTRIPT] gave an IC50 of 169 µM.
